Marks after values point to notes of the source that are not given here.
How the values were obtained:
[1] = test system: A431 human epidermal carcinoma xenograft; experiment: A431 human epidermal carcinoma xenograft model; type: in vivo, nude mice; conditions: A431 xenograft, 50 mg/kg intragastric once a day for 14 days
Procedure: (§1) Tumor cells were cultured in an incubator at 37° C. with 5% CO2 using MEM medium containing 10% inactivated fetal calf serum, 100 U/ml penicillin and 100 µg/ml streptomycin. The tumor cells in logarithmic growth phase were collected, adjusted to an appropriate density and injected subcutaneously into nude mice (0.2 ml per mouse). An xenograft model was established after a tumor was formed in the nude mice and passaged in vivo for more than three generations.
(§2) The above-mentioned tumor-bearing mice were sacrificed by cervical dislocation. The tumor was taken out and cut into small tumor pieces (about 2 mm×2 mm×2 mm) under sterile conditions. The small tumor pieces were inoculated subcutaneously into nude mice with a trocar. […] The animals in each group were subjected to intragastric administration once a day for 14 consecutive days. The day of grouping is assigned as day 0.
(§3) Tumor volume is calculated as: volume =0.5×long diameter×short diameter^2. The relative tumor volume (RTV) was calculated based on the measurements as: RTV=Vt/V0, wherein V0 is the tumor volume measured when the animals were grouped to be administrated (i.e., d0), and Vt is the tumor volume when each measurement was taken. Relative tumor proliferation rate T/C was calculated based on relative tumor volume, in which T is the mean value of the relative tumor volume of the treatment group, and C is the mean value of the relative tumor volume of the solvent control group. T/C was calculated as follows: T/C=TRTV/CRTV×100% (TRTV: RTV of the treatment group; CRTV:
RTV of the solvent control group) Inhibition rate (%)=(mean tumor weight of the solvent control group−mean tumor weight of the treatment group)/mean tumor weight of the solvent control group×100%. Percentage of body weight change=Wn/W0×100% (Wn: mean body weight of experimental animals in each group at day n, W0: mean body weight of experimental animals in each group at day 0).
(§4) One-Way ANOVA test was conducted in SPSS13.0, performing statistical analysis between groups.

[2] = test system: FaDu human head and neck cancer xenograft; experiment: FaDu human head and neck cancer xenograft model; type: in vivo, nude mice; conditions: FaDu xenograft, 50 mg/kg intragastric daily for 14 days
Procedure: as §1, with “μg/ml” for “µg/ml”, “after” for “after a”
as §2, with “nude mice on the right shoulder blade with a” for “nude mice with a”, “intragastric administration daily for 14” for “intragastric administration once a day for 14”
as §3, with “volume=0.5×long” for “volume =0.5×long”, “CRTV: RTV of the solvent control group) Inhibition rate (%)=(mean tumor weight of the solvent control group−mean tumor weight of the treatment group)/mean tumor weight of the solvent control group×100%. Percentage of body weight change=Wn/W0×100% (Wn: mean body weight of experimental animals in each group at day n, W0: mean body weight of experimental animals in each group at day 0).” for “CRTV:”
as §4

[3] = test system: HCC827 human non-small cell lung cancer xenograft; experiment: HCC827 human non-small cell lung cancer xenograft model; type: in vivo, nude mice; conditions: HCC827 xenograft, 50 mg/kg intragastric daily for 14 days
Procedure: as §1, with “μg/ml” for “µg/ml”
as §2, with “nude mice on the right shoulder blade with a” for “nude mice with a”, “intragastric administration daily for 14” for “intragastric administration once a day for 14”
as §3, with “volume=0.5×long” for “volume =0.5×long”, “CRTV: RTV of the solvent control group) Inhibition rate (%)=(mean tumor weight of the solvent control group−mean tumor weight of the treatment group)/mean tumor weight of the solvent control group x 100%. Percentage of body weight change=Wn/W0×100% (Wn: mean body weight of experimental animals in each group at day n, W0: mean body weight of experimental animals in each group at day 0).” for “CRTV:”
as §4

EGFR = target: T1, EGFR (Homo sapiens, UniProt P00533); experiment: Inhibitory effect on tyrosine kinase activity of EGFR; type: biochemical; conditions: EGFR 40 ng/ml, ATP 10 μM, 30 min
T1 construct: purchased Invitrogen Company PV3872
Procedure: EGFR: Invitrogen Company, Catalogue No. PV3872
pGT (poly(glutamic acid-tyrosine)): Sigma-Aldrich Company, Catalogue No. P0275
The assay method is briefly described as follows.
3.1.1 At 4° C., 96-well microtiter plate was coated with 0.2 mg/mL pGT (as the substrate of enzyme) dissolved in PBS (phosphate buffer) overnight. Unbound pGT was washed away with a washing solution (0.05% Tween −20 in PBS), and the plate was dried in the air at room temperature for 2 h.
3.1.2 The enzyme reaction was performed in 50 μl reaction system containing 50 mM HEPEs (N-(2-hydroxyethyl)piperazine-N′-2-ethanesulfonic acid), pH 7.5, 0.01% BRIJ-35 (polyoxyethylene lauryl ether), 10 mM MgCl2, 1 mM EGTA (ethylene glycol bis(2-aminoethyl ether)tetraacetic acid), with certain concentrations of ATP (adenosine triphosphate) and kinase, and proceeded for 30 min at room temperature. The phosphate group at the terminal of ATP can be transferred to tyrosine residues of pGT by kinase catalysis so as to phosphorylate the tyrosine residues.
3.1.3 A final concentration of 1% SDS (sodium dodecyl sulfate) was added to terminate the reaction. The phosphorylated tyrosine residues were identified using pY-20. HRP at the end of the antibody enabled TMB to take on color. Then equal amount of 2 N H2SO4 was added to terminate the reaction. OD value, which is positively correlated with the phosphorylation degree of tyrosine residues of pGT, was measured at 450 nm
3.2 The concentrations of the kinase and substrate ATP were determined with reference to the literature “Optimization of a LanthaScreen Kinase assay for EGFR (ErbB1)”(https://tools.lifetechnologies.com/content/sfs/manuals/EGFR_LanthaScreen_actity_Europium.pdf), published by Invitrogen Corporation. The selection criteria for the final concentrations are that the concentration of kinase enabling the yield of the product within the linear range of the detection system and the concentration of ATP approching Km (Michaelis constant) value.
3.3.1 An appropriate amount of a compound was dissolved in DMSO (dimethylsulfoxide) to prepare 2 mM stock solution. Then the stock solution was diluted with DMSO to obtain a working solution with a 50-fold concentration of the highest test concentration, and subjected to a 4-fold gradient dilution to obtain seven concentrations in total.
5 μl 10-fold concentration of ATP dissolved in H2O (the concentration of ATP in EGFR assay is 100 μM, and in Her2 assay is 400 μM) was added to initiate the enzyme reaction followed by reaction at room temperature for 30 min
The mean value of inhibition rate and SD (standard deviation) were determined by duplicate wells. A curve with the concentration of the compound as abscissa and being in logarithmic distribution and the mean value of inhibition rate as ordinate was plotted and fitted using four-parameter logistic function.

[4] = Bioavailability assay in rats, Experiment II (dihydrobromide); type: in vivo; conditions: Wistar rats
[5] = 20 mg/kg tail intravenous injection
[6] = both sexes, rat, plasma, po, 20 mg/kg intragastric gavage
[7] = both sexes, rat, plasma, 20 mg/kg tail intravenous injection

C#Cc1cccc(Nc2ncnc3cc(OCCOC)c(OCCOC)cc23)c1 [Tarceva, reference compound]
Tumor Weight (x ± S.D.) [1]: 0.281 ± 0.252 g | Tumor Inhibitor Rate ([1]; by tumor weight): 62.0% | T/C ([1]; end of the assay): 47.3% | Tumor Volume (x ± S.D.) ([1]; end of the assay): 498.9 ± 263.4** mm^3 | Tumor Weight (x ± S.D.) [2]: 0.650 ± 0.267 g | Tumor Inhibitor Rate ([2]; by tumor weight): 40.6% | T/C ([2]; end of the assay): 59.9% | Tumor Volume (x ± S.D.) ([2]; end of the assay): 709.9 ± 274.9** mm^3 | Tumor Weight (x ± S.D.) [3]: 0.067 ± 0.055 g | T/C ([3]; end of the assay): 5.0% | Tumor Volume (x ± S.D.) ([3]; end of the assay): 55.3 ± 46.3*** mm^3

N-[4-(3-chloro-4-fluorophenylamino)-7-(2-methoxyethoxy)quinazolin-6yl]-2-[piperidin-4-ylidene]acetamide disulfate [Compound 5]
IC50 (EGFR): 0.3 nM

COCCOc1cc2ncnc(Nc3ccc(F)c(Cl)c3)c2cc1NC(=O)C=C1CCN(CCOC)CC1 [Compound 6, N-[4-(3-chloro-4-fluorophenylamino)-7-(2-methoxyethoxy)quinazolin-6-yl]-2-[1-(2-methoxyethyl)piperidin-4-ylidene]acetamide dinitrate]
IC50 (EGFR): 0.6 nM

COCCOc1cc2ncnc(Nc3ccc(F)c(Cl)c3)c2cc1NC(=O)C=C1CCN(CCOC)CC1 [Compound 11, N-[4-(3-chloro-4-fluorophenylamino)-7-(2-methoxyethoxy)quinazolin-6yl]-2-[1-(2-methoxyethyl)piperidin-4-ylidene]acetamide di(p-toluenesulfonate)]
IC50 (EGFR): 0.4 nM

Br.Br.COCCOc1cc2ncnc(Nc3ccc(F)c(Cl)c3)c2cc1NC(=O)C=C1CCN(CCOC)CC1 [Example 5, N-[4-(3-chloro-4-fluorophenylamino)-7-(2-methoxyethoxy)quinazolin-6-yl]-2-[1-(2-methoxyethyl)piperidin-4-ylidene]acetamide dihydrobromide]
CLz/F ([4]; 20 mg/kg intragastric gavage): 66.48 mL/min/kg | t½z ([4]; 20 mg/kg intragastric gavage): 5.564 h | CLz [4, 5]: 25.8 mL/min/kg | t½z [4, 5]: 5.514 h | bioavailability ([4]; both sexes, rat, plasma, oral, 20 mg/kg ig vs 20 mg/kg iv): 42.8% | AUC(0-inf) [4, 6]: 5550 ng·h/mL | AUC(0-t) [4, 6]: 5240 ng·h/mL | Cmax [4, 6]: 368 ng/mL | Tmax [4, 6]: 6 h | Vd/F ([4]; both sexes, rat, plasma, po, 20 mg/kg intragastric gavage, read-out: Vz/F): 30.1 L/kg | AUC(0-inf) [4, 7]: 13000 ng·h/mL | AUC(0-t) [4, 7]: 12700 ng·h/mL | Cmax [4, 7]: 3240 ng/mL | Tmax [4, 7]: 0.083 h | Vd ([4]; both sexes, rat, plasma, 20 mg/kg tail intravenous injection, read-out: Vz): 12.2 L/kg

COCCOc1cc2ncnc(Nc3ccc(F)c(Cl)c3)c2cc1NC(=O)C=C1CCN(CCOC)CC1 [Compound 10, N-[4-(3-chloro-4-fluorophenylamino)-7-(2-methoxyethoxy)quinazolin-6-yl]-2-[1-(2-methoxyethyl)piperidin-4-ylidene]acetamide dimaleate]
IC50 (EGFR): 0.3 nM

COCCOc1cc2ncnc(Nc3ccc(F)c(Cl)c3)c2cc1NC(=O)C=C1CCN(CCOC)CC1 [Compound 9, N-[4-(3-chloro-4-fluorophenylamino)-7-(2-methoxyethoxy)quinazolin-6-yl]-2-[1-(2-methoxyethyl)piperidin-4-ylidene]acetamide difumarate]
IC50 (EGFR): 0.5 nM

COCCOc1cc2ncnc(Nc3ccc(F)c(Cl)c3)c2cc1NC(=O)C=C1CCN(CCOC)CC1 [Compound 8, N-[4-(3-chloro-4-fluorophenylamino)-7-(2-methoxyethoxy)quinazolin-6-yl]-2-[1-(2-methoxyethyl)piperidin-4-ylidene]acetamide diphenylsulfonate]
IC50 (EGFR): 0.8 nM

— patent publication US9840494B2, “Quinazoline derivative” (Tianjin Hemay Oncology Pharmaceutical Co., Ltd., priority 2013, dated 2017)
